System: subclinical sun damage
Assay: Follow-up treatments of one patient on a substantially annual basis
Type: in vivo, human
Details: each time after the first treatment
Description: In order to assess the scope of original treatment, one patient received further treatments over a substantially annual basis. In Table 4, treatment #, days since last treatment, and observations are provided. […] From this, it was concluded that all of the subclinical sun damage treated most likely resolved during each cycle of therapy. Subsequent milder reactions appear to have treated new subclinical sun damage or possible recurrent sun damage. […] The freckle also resolved itself after follow-up treatment #1. During follow-up treatment #2, FIG. 4C, there was no sign of the freckle. That is, where there may not have been a response during an earlier treatment, a subsequent treatment invoked a response. Moreover, responses to successive treatments, if any, were not as severe as the initial response. […] It is also concluded that annual treatment aids in preventing actinic keratoses from forming as well as eliminates any new sun damage.

O=c1[nH]cc(F)c(=O)[nH]1 [5-FU, 5-fluorouracil]
response in follow-up treatments: mild erythema

From patent publication US8658619B2, “Methods of treating subclinical sun damage” (priority 2010, dated 2014)
